Experimental data reported in patent publication US5466671A, “Apidaecin-type peptide antibiotics with improved activities and/or different antibacterial spectrum” (priority 1994, dated 1995).
Residues, ends and D or L forms follow the SMILES beside them.

Columns and labels:
Rhizobium meliloti = assay: Inhibition zone assay (agar plate); format: cell-based; details: 50 nanomoles/well, 3 mm wells
Y. enterocolitica = assay: Minimal inhibitory concentration (liquid culture); details: inoculum 5000 CFU/ml; a-b = highest concentration with growth - lowest without growth
Haemophilus influenzae = assay: Inhibition zone assay (agar plate); format: cell-based; details: 50 nanomoles/well, 3 mm wells
E. coli 23802 = assay: Minimal inhibitory concentration (liquid culture); details: inoculum 5000 CFU/ml; a-b = highest concentration with growth - lowest without growth
A. calcoaceticus = assay: Minimal inhibitory concentration (liquid culture); details: inoculum 16 × 10^6 CFU/ml; a-b = highest concentration with growth - lowest without growth
[1] = tested on: Escherichia coli (ATCC11775); assay: Inhibition zone assay (agar plate); format: cell-based; details: agar plate, 50 nanomoles/well, 3 mm wells
Klebsiella pneumoniae = assay: Inhibition zone assay (agar plate); format: cell-based; details: agar plate, 50 nanomoles/well, 3 mm wells
[2] = tested on: Agrobacterium tumefaciens; assay: Inhibition zone assay (agar plate); format: cell-based; details: agar plate, 50 nanomoles/well, 3 mm wells
E. coli 11775 = assay: Minimal inhibitory concentration (liquid culture); details: a-b = highest concentration with growth - lowest without growth
[3] = tested on: Acinetobacter calcoaceticus; assay: Inhibition zone assay (agar plate); format: cell-based; details: agar plate, 50 nanomoles/well, 3 mm wells
E. coli Apid^R = assay: Minimal inhibitory concentration (liquid culture); format: cell-based; details: a-b = highest concentration with growth - lowest without growth
Excerpt: For details see `Experimental Procedures`.

Erwinia amylovora = assay: Inhibition zone assay (agar plate); format: cell-based; details: agar plate, 50 nanomoles/well, 3 mm wells
M. morganii = assay: Minimal inhibitory concentration (liquid culture); details: inoculum 400 CFU/ml; a-b = highest concentration with growth - lowest without growth
Enterobacter cloacae = assay: Inhibition zone assay (agar plate); format: cell-based; details: agar plate, 50 nanomoles/well, 3 mm wells
E. coli 25922 = assay: Minimal inhibitory concentration (liquid culture); details: inoculum 1100 CFU/ml; a-b = highest concentration with growth - lowest without growth
Francisella tularensis = format: cell-based; details: agar plate, 50 nanomoles/well, 3 mm wells
S. typhimurium = assay: Minimal inhibitory concentration (liquid culture); details: inoculum 8 × 10^6 CFU/ml; a-b = highest concentration with growth - lowest without growth
Pseudomonas syringae = assay: Inhibition zone assay (agar plate); format: cell-based; details: agar plate, 50 nanomoles/well, 3 mm wells
Salmonella typhimurium = assay: Inhibition zone assay (agar plate); format: cell-based; details: agar plate, 50 nanomoles/well, 3 mm wells
Yersinia enterocolitica = assay: Inhibition zone assay (agar plate); format: cell-based; details: 50 nanomoles/well, 3 mm wells
Campylobacter jejuni = assay: Inhibition zone assay (agar plate); format: cell-based; details: 50 nanomoles/well, 3 mm wells
Morganella morganii = assay: Inhibition zone assay (agar plate); format: cell-based; details: 50 nanomoles/well, 3 mm wells
Escherichia coli (K514) = format: cell-based; details: agar plate, 50 nanomoles/well, 3 mm wells
Shigella dysenteriae = format: cell-based; details: agar plate, 50 nanomoles/well, 3 mm wells
Legionella pneumophila = format: cell-based; details: agar plate, 50 nanomoles/well, 3 mm wells

Row | Structure (SMILES) | inhibition zone diameter (number of plus signs) (Rhizobium meliloti) | minimal inhibitory concentration (MIC) (Y. enterocolitica) | inhibition zone diameter (number of plus signs) (Haemophilus influenzae) | minimal inhibitory concentration (MIC) (E. coli 23802) | minimal inhibitory concentration (MIC) (A. calcoaceticus) | inhibition zone diameter (number of plus signs) [1] | inhibition zone diameter (number of plus signs) (Klebsiella pneumoniae) | inhibition zone diameter (number of plus signs) [2] | minimal inhibitory concentration (MIC) (E. coli 11775; inoculum 16 × 10^6 CFU/ml) | minimal inhibitory concentration (MIC) (E. coli 11775; inoculum 1200 CFU/ml) | inhibition zone diameter (number of plus signs) [3] | minimal inhibitory concentration (MIC) (E. coli Apid^R; inoculum 12 × 10^6 CFU/ml) | minimal inhibitory concentration (MIC) (E. coli Apid^R; inoculum 1000 CFU/ml) | inhibition zone diameter (number of plus signs) (Erwinia amylovora) | minimal inhibitory concentration (MIC) (M. morganii) | inhibition zone diameter (number of plus signs) (Enterobacter cloacae) | minimal inhibitory concentration (MIC) (E. coli 25922) | minimal inhibitory concentration (MIC) (S. typhimurium) | inhibition zone diameter (number of plus signs) (Pseudomonas syringae) | inhibition zone diameter (number of plus signs) (Salmonella typhimurium) | other results
1 | CC(C)C[C@H](NC(=O)[C@H](CCCNC(=N)N)NC(=O)[C@@H]1CCCN1C(=O)[C@H](Cc1c[nH]cn1)NC(=O)[C@@H]1CCCN1C(=O)[C@@H]1CCCN1C(=O)[C@H](CCCNC(=N)N)NC(=O)[C@@H]1CCCN1C(=O)[C@@H]1CCCN1C(=O)[C@@H](NC(=O)[C@H](CCC(N)=O)NC(=O)[C@H](CCC(N)=O)NC(=O)[C@@H]1CCCN1C(=O)[C@H](CCCNC(=N)N)NC(=O)[C@@H]1CCCN1C(=O)[C@H](CCCCN)NC(=O)[C@@H](N)CC(N)=O)C(C)C)C(=O)O [Yj -S, Asn--Lys--Pro--Arg--Pro--Gln--Gln--Val--Pro--Pro--Arg--Pro--Pro--His--Pro--Arg--Leu] (H-NKPRPQQVPPRPPHPRL-OH) | ++++ ((++++) 15-19 mm) | 1 to 5 µg/mL | ++ ((++) 7-9 mm) | 1 to 5 µg/mL | 2 to 10 µg/mL | +++ ((+++) 10-14 mm) | ++ ((++) 7-9 mm) | ++ ((++) 7-9 mm) | 0.1 to 0.5 µg/mL | 0.1 to 0.5 µg/mL | ++ ((++) 7-9 mm) | 5 to 10 µg/mL | 5 to 10 µg/mL | ++++ ((++++) 15-19 mm) | 1 to 5 µg/mL | ++ ((++) 7-9 mm) | 0.1 to 0.5 µg/mL | 0.1 to 0.5 µg/mL | ++++ ((++++) 15-19 mm) | +++ ((+++) 10-14 mm) | inhibition zone diameter (number of plus signs) (Francisella tularensis): + ((+) 5-6 mm); inhibition zone diameter (number of plus signs) (Yersinia enterocolitica): ++ ((++) 7-9 mm)
2 | CC[C@H](C)[C@H](NC(=O)[C@@H]1CCCN1C(=O)[C@H](C)NC(=O)[C@@H]1CCCN1C(=O)[C@H](CCCNC(=N)N)NC(=O)[C@@H]1CCCN1C(=O)[C@H](CCCCN)NC(=O)[C@H](CC(N)=O)NC(=O)[C@@H]1CCCN1C(=O)[C@H](CCCCN)NC(=O)CN)C(=O)N[C@@H](CCCCN)C(=O)N1CCC[C@H]1C(=O)N[C@@H](CCCNC(=N)N)C(=O)N1CCC[C@H]1C(=O)N1CCC[C@H]1C(=O)N[C@@H](Cc1c[nH]cn1)C(=O)N1CCC[C@H]1C(=O)N[C@@H](CCCNC(=N)N)C(=O)N[C@@H](CC(C)C)C(=O)O [Cd 2+, Gly--Lys--Pro--Asn--Lys--Pro--Arg--Pro--Ala--Pro--Ile--Lys--Pro--Arg--Pro--Pro--His--Pro--Arg--Leu] (H-GKPNKPRPAPIKPRPPHPRL-OH) | ++++ ((++++) 15-19 mm) | 10 to 20 µg/mL | ++++ ((++++) 15-19 mm) | 0.1 to 0.5 µg/mL | 10 to 20 µg/mL | +++ ((+++) 10-14 mm) | ++ ((++) 7-9 mm) | +++ ((+++) 10-14 mm) | 0.1 to 0.5 µg/mL | 0.1 to 0.5 µg/mL | + ((+) 5-6 mm) | 0.5 to 1.5 µg/mL | 0.5 to 1 µg/mL | ++ ((++) 7-9 mm) | 1 to 5 µg/mL | +++ ((+++) 10-14 mm) | 0.1 to 0.5 µg/mL | 0.1 to 0.5 µg/mL | +++ ((+++) 10-14 mm) | +++ ((+++) 10-14 mm) | inhibition zone diameter (number of plus signs) (Campylobacter jejuni): +++++ ((+++++) 20 or more min); minimal inhibitory concentration (MIC) (E. coli Apid^R; inoculum 12 × 10^6 CFU/ml, listed as Cd2+): measurable activities; inhibition zone diameter (number of plus signs) (Morganella morganii): ++ ((++) 7-9 mm); inhibition zone diameter (number of plus signs) (Escherichia coli (K514)): ++ ((++) 7-9 mm)
3 | CC[C@H](C)[C@H](NC(=O)[C@H](Cc1ccc(O)cc1)NC(=O)[C@@H](NC(=O)[C@@H]1CCCN1C(=O)[C@H](CCCNC(=N)N)NC(=O)[C@H](CC(N)=O)NC(=O)[C@H](C)N)C(C)C)C(=O)N1CCC[C@H]1C(=O)N1CCC[C@H]1C(=O)N1CCC[C@H]1C(=O)N[C@@H](CCCNC(=N)N)C(=O)N1CCC[C@H]1C(=O)N1CCC[C@H]1C(=O)N[C@@H](Cc1c[nH]cn1)C(=O)N1CCC[C@H]1C(=O)N[C@@H](CCCNC(=N)N)C(=O)N[C@@H](CC(C)C)C(=O)O [Bb+A] (H-ANRPVYIPPPRPPHPRL-OH) | ++++ ((++++) 15-19 mm) | 5 to 10 µg/mL | +++ ((+++) 10-14 mm) | 10 to 20 µg/mL | 2 to 10 µg/mL | ++++ ((++++) 15-19 mm) | ++ ((++) 7-9 mm) | ++++ ((++++) 15-19 mm) | 0.5 to 1 µg/mL | 0.05 to 0.1 µg/mL | ++ ((++) 7-9 mm) | > 40 µg/mL | > 40 µg/mL | ++++ ((++++) 15-19 mm) | 20 to 40 µg/mL | +++ ((+++) 10-14 mm) | 0.5 to 1 µg/mL | 0.5 to 1 µg/mL | +++++ ((+++++) 20 or more min) | +++ ((+++) 10-14 mm) | inhibition zone diameter (number of plus signs) (Shigella dysenteriae): + +++; inhibition zone diameter (number of plus signs) (Legionella pneumophila): ++ ((++) 7-9 mm); inhibition zone diameter (number of plus signs) (Yersinia enterocolitica): +++ ((+++) 10-14 mm)
